Source: US10314827B2, “Methods of use of cyclopamine analogs” (Infinity Pharmaceuticals, Inc., priority 2006, dated 2019)
Read-outs that look alike come from different tables or passages of the source.

Test system: Hedgehog pathway
Test: C3H10T1/2 osteoblast differentiation assay (alkaline phosphatase readout)
Format: cell-based, Mouse
Conditions: C3H10T1/2 cells, sonic Hedgehog 250 ng/ml, AP activity normalized to total protein, read-out: Differentiation Assay EC50 (approximate EC50 for inhibition)
Description: Hedgehog pathway specific cancer cell killing effects may be ascertained using the following assay. C3H10T1/2 cells differentiate into osteoblasts when contacted with the sonic hedgehog peptide (Shh-N). Upon differentiation; these osteoblasts produce high levels of alkaline phosphatase (AP) which can be measured in an enzymatic assay (Nakamura et al., X BBRC (1997) 237:465). Compounds that block the differentiation of C3H10T1/2 into osteoblasts (a Shh dependent event) can therefore be identified by a reduction in AP production (van der Horst et al., Bone (2003) 33:899). The assay details are described below. The results approximate (EC50 for inhibition) of the differentiation assay is shown below in Table 1.
Mouse embryonic mesoderm fibroblasts C3H10T1/2 cells (obtained from ATCC) were cultured in Basal MEM Media (Gibco/Invitrogen) supplemented with 10% heat inactivated FBS (Hyclone), 50 units/ml penicillin and 50 ug/ml streptomycin (Gibco/Invitrogen) at 37° C. With 5% CO2 in air atmosphere.
C3H10T1/2 cells were plated in 96 wells with a density of 8×10^3 cells/well. Cells were grown to confluence (72 hrs). After sonic Hedgehog (250 ng/ml), and/or compound treatment, the cells were lysed in 110 μL of lysis buffer (50 mm Tris ph 7.4, 0.1% tritonx100), plates were sonicated and lysates spun through 0.2 μm PVDF plates (Corning). 40 μL of lysates was assayed for AP activity in alkaline buffer solution (Sigma) containing 1 mg/ml p-Nitrophenyl Phosphate. After incubating for 30 min at 37° C., the plates were read on an Envision plate reader at 405 nm. Total protein was quantified with a BCA protein assay kit from Pierce according to manufacturer's instructions. AP activity was normalized against total protein.

CC1=C2C[C@H]3[C@@H](CC[C@@H]4CC(=O)CC[C@@]43C)[C@@H]2CC[C@@]2(C1)O[C@@H]1C[C@H](C)CN[C@H]1[C@H]2C [Compound 1]
EC50 (Mus musculus, C3H 10T1/2): < 0.02 µM

CC1=C2C[C@H]3[C@@H](CCC4=CC(=O)CC[C@@]43C)[C@@H]2CC[C@@]2(C1)O[C@@H]1C[C@H](C)CN(CCN(C)C)[C@H]1[C@H]2C [Compound 20]
EC50: < 0.02 µM

CC1=C2C[C@H]3[C@@H](CC[C@@H]4CC(=O)CC[C@@]43C)[C@@H]2CC[C@@]2(C1)O[C@@H]1C[C@H](C)CN(CCNC(=O)CCc3ccccc3)[C@H]1[C@H]2C [Compound 23]
EC50 (Mus musculus, C3H 10T1/2): < 0.02 µM

CC(=O)O[C@H]1CC[C@@]2(C)[C@H](CC[C@H]3[C@@H]4CC[C@@]5(CC(C)=C4C[C@@H]32)O[C@@H]2C[C@H](C)CN[C@H]2[C@H]5C)C1 [Compound 35]
EC50 (Mus musculus, C3H 10T1/2): < 0.02 µM

CC1=C2C[C@H]3[C@@H](CC[C@@H]4CCCC[C@@]43C)[C@@H]2CC[C@@]2(C1)O[C@@H]1C[C@H](C)CN[C@H]1[C@H]2C [Compound 9]
EC50 (Mus musculus, C3H 10T1/2): > 0.1 µM

CC1=C2C[C@H]3[C@@H](CC[C@@H]4C[C@H](NS(C)(=O)=O)CC[C@@]43C)[C@@H]2CC[C@]12O[C@@H]1C[C@H](C)CN[C@H]1[C@H]2C [Compound 55]
EC50 (Mus musculus, C3H 10T1/2): < 0.02 µM

CC1=C2C[C@H]3[C@@H](CC[C@@H]4CC(=O)CC[C@@]43C)[C@@H]2CC[C@@]2(C1)O[C@@H]1C[C@H](C)CN(CCNCC(=O)c3ccccc3)[C@H]1[C@H]2C [Compound 13]
EC50: < 0.02 µM
